PubChem BioAssay AID1648 (Sanford-Burnham Center for Chemical Genomics, 2009)
Activity calls are given as the source filed them. How the calls were made is not given here.

Target: Serine/threonine-protein kinase mTOR (Homo sapiens) (UniProt P42345)
Experiment: mTOR FRB domain ligand binding – biophysical, NMR (AID 1648)
Conditions: NMR binding to FRB domain, chemical shift

Serine/threonine-protein kinase mTOR (Homo sapiens), sequence (P42345 2015-2114): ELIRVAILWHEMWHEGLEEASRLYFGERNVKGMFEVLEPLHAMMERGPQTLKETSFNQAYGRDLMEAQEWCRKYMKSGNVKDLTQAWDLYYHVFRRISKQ

Row | SMILES | Kd
1 | COC(=O)Nc1ccc2ncn(C)c(=O)c2c1 | > 4 mM (inactive)
2 | O=C(NS(=O)(=O)c1ccccc1)c1ccccc1F | > 4 mM (inactive)
3 | CNC(=O)C(=O)Nc1ccc(C)c(C)c1 | > 4 mM (inactive)
4 | O=C(CC1NCCNC1=O)Nc1ccccc1 (configuration not stated) | > 4 mM (inactive)
5 | O=C1CSC(=O)N1CN1CCCC1 | > 4 mM (inactive)
6 | COCC(=O)N1CCCc2ccccc21 | > 4 mM (inactive)
7 | CC1=C(/C=C/C(C)=C/C=C/C(C)=C/CO)C(C)(C)CCC1 | > 4 mM (inactive)
8 | OC[C@H]1O[C@@H](Oc2ccc(O)cc2)[C@H](O)[C@@H](O)[C@@H]1O | > 4 mM (inactive)
9 | O=c1c(-c2ccc(O)cc2)coc2cc(O)ccc12 | > 4 mM (inactive)
10 | COc1c2ccoc2nc2c(OC)c(OCC(O)C(C)(C)O)ccc12 (configuration not stated) | > 4 mM (inactive)
11 | CCCCCCCCCCCCCCC(C(=O)OC)C(O)(CC(=O)OC)C(=O)OC (configuration not stated) | > 4 mM (inactive)
12 | CC1(C)CC[C@]2(C(=O)O)CC[C@]3(C)C(=CCC4[C@@]5(C)CC[C@H](O)[C@@](C)(CO)C5CC[C@]43C)C2C1 (some centres not stated) | > 4 mM (inactive)
13 | COC(=O)[C@@H]1OC(=O)C2OC23[C@@]1(C)CCC1[C@@]2(C)CCC(=O)C(C)(C)C2C[C@@H](OC(C)=O)[C@]13C (some centres not stated) | > 4 mM (inactive)
14 | O=C(O)C1=CCCNC1 | > 4 mM (inactive)
15 | COc1ccc(-c2cc(=O)c3ccccc3o2)cc1OC | > 4 mM (inactive)
16 | Cc1ccc2c(C)c(C(=O)Nc3nnc(C)s3)oc2c1 | > 4 mM (inactive)
17 | O=C(Nc1ccc(Cl)cc1)N1CCCC1 | > 4 mM (inactive)
18 | C[C@@H]1CC[C@H]2[C@@H](C)C(=O)O[C@@H]3OC4(C)CC[C@@H]1[C@]32OO4 | > 4 mM (inactive)
19 | O=c1c2ccccc2oc2ccc(O)cc12 | > 4 mM (inactive)
20 | C/C=C/C=N/NC(=O)c1ccc(=O)n(C)c1 | > 4 mM (inactive)
21 | CSc1ccc(C(=S)N2CCN(C)CC2)cc1 | > 4 mM (inactive)
22 | CC(C)(C)C(=O)Nc1ncc(C(F)(F)F)cc1Cl | > 4 mM (inactive)
23 | Cc1cc(N)n(C2CCOC(C)(C)C2)n1 (configuration not stated) | > 4 mM (inactive)
24 | OCCN1CCN(C(=S)c2ccc(Cl)cc2)CC1 | > 4 mM (inactive)

Row | SMILES | Kd
25 | Cn1cccc1C(=S)N1CCOCC1 | > 4 mM (inactive)
26 | NC(=O)c1ccsc1N | > 4 mM (inactive)
27 | C=CCSCC=C | > 4 mM (inactive)
28 | O=C(NCc1cccnc1)c1ccccn1 | > 4 mM (inactive)
29 | Cc1cc(C)c(NC(=O)CN2CCC(O)CC2)c(C)c1 | > 4 mM (inactive)
30 | Fc1cc2nccnc2cc1N1CCSCC1 | > 4 mM (inactive)
31 | CC(=O)N1CCN(c2ccc(N)cc2)CC1 | > 4 mM (inactive)
32 | CN1CCN(C(=O)Nc2cccc3ccccc23)CC1 | > 4 mM (inactive)
33 | CC(=O)Oc1c2c(c3c(c1CC=C(C)C)O[C@]14C(=C[C@@H]5CC1C(C)(C)OC4(C/C=C(\C)C(=O)O)C5=O)C3=O)OC(C)(CCC=C(C)C)C=C2 (some centres not stated) | > 4 mM (inactive)
34 | NC(=O)C1(S(=O)(=O)c2ccccc2)CC1 | > 4 mM (inactive)
35 | OC1COCc2nc3ccccc3n2C1 (configuration not stated) | > 4 mM (inactive)
36 | OC1CCN(C(=S)NC2CC2)CC1 | > 4 mM (inactive)
37 | Cc1noc(C)c1C(=O)N1CCc2ccccc2C1 | > 4 mM (inactive)
38 | NC(=S)CN1CCCC1=O | > 4 mM (inactive)
39 | O=C1c2ccccc2C(=O)N1CCc1ccccn1 | > 4 mM (inactive)
40 | Cn1c(SCC(=O)NCCO)nc2ccccc2c1=O | > 4 mM (inactive)
41 | Cc1nnc(N2CCN(c3ccccc3)CC2)[nH]c1=O | > 4 mM (inactive)
42 | NS(=O)(=O)c1ccc(N2CCCC2=O)cc1 | > 4 mM (inactive)
43 | O=C(O)CCC(=O)c1cccc2ccccc12 | > 4 mM (inactive)
44 | CCOC(=O)c1[nH]cnc1C(=O)OC(C)C | > 4 mM (inactive)
45 | O=C(Nc1ccon1)c1cccc(Cl)c1 | > 4 mM (inactive)
46 | Nc1nnc(SCc2ccc(F)cc2)s1 | > 4 mM (inactive)
47 | NS(=O)(=O)c1ccc(N=C2NC(=O)CS2)cc1 | > 4 mM (inactive)
